What is called IC50 is the concentration needed to halve the response being measured. The low end stands for higher potency, the high end for lower potency. The inhibition is the share of the control response that was lost under treatment.

The target of one assay is Macrophage metalloelastase (Mus musculus, UniProt P34960). The experiment in a line: Inhibitory activity against mouse macrophage metalloelastase (MME) using [3H]elastin as a substrate.
Sequence of Macrophage metalloelastase (P34960 whole entry): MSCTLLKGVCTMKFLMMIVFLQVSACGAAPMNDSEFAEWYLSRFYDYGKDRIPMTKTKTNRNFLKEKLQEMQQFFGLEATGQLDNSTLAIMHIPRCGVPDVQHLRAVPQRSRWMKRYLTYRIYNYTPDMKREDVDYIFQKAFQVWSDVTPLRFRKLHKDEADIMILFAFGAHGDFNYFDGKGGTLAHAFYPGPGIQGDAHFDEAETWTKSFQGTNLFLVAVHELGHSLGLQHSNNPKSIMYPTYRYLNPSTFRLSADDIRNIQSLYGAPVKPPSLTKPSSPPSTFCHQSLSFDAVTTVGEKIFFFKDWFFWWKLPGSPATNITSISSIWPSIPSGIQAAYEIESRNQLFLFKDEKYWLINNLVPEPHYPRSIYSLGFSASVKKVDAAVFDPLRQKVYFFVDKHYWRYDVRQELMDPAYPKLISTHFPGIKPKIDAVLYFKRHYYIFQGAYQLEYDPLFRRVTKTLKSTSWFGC
`COc1ccc(S(=O)(=O)N(Cc2ccccn2)[C@H](C(=O)NO)C(C)C)cc1` displayed an IC50 of 37 nM.
Same read-out and setting: for `COc1ccc(S(=O)(=O)N(Cc2ccccc2)[C@@H](C(=O)NO)C(C)C)cc1` the value was 4.9 nM; for `CC[C@@H](C)C[C@H](C(=O)NO)N(Cc1ccccc1)S(=O)(=O)c1ccc(OC)cc1`, 4.8 nM.
The same measure, in the same setting: for `COc1ccc(S(=O)(=O)N(Cc2ccccn2)[C@@H](C(=O)NO)C(C)C)cc1` the value was 6 nM; for `COc1ccc(S(=O)(=O)N(Cc2ccccc2)[C@H](C)C(=O)NO)cc1`, 9.6 nM; for `COc1ccc(S(=O)(=O)N(Cc2ccccc2)[C@@H](C)C(=O)NO)cc1`, 35 nM.
With `COc1ccc(S(=O)(=O)N(Cc2ccccc2)C(C)C(=O)NO)cc1` (stereo not given), the IC50 was found to be 13 nM.
The same measure, in the same setting: for `COc1ccc(S(=O)(=O)N(Cc2ccccc2)[C@@H](C(=O)NO)c2ccccc2)cc1` the value was 31 nM.
In the case of `COc1ccc(S(=O)(=O)N(Cc2ccccc2)[C@@H](C(=O)NO)C2CCNCC2)cc1`, the IC50 is > 100 nM.
Take `COc1ccc(S(=O)(=O)N(Cc2ccccn2)[C@H](CC(C)C)C(=O)NO)cc1`: half-maximal inhibition (IC50) required 6.9 nM.
For the compound `COc1ccc(S(=O)(=O)N(Cc2ccccc2)C(C(=O)NO)C(C)C)cc1` (stereo not given), the IC50 came to 16 nM.
In turn, `COc1ccc(S(=O)(=O)N(Cc2ccccc2)[C@H](CCCCNC(=O)Oc2ccccc2)C(=O)NO)cc1` displayed an IC50 of 67 nM.
Same read-out and setting: for `COc1ccc(S(=O)(=O)N(Cc2ccccc2)[C@@H](C(=O)NO)C2CCCC2)cc1` the value was 15 nM; for `COc1ccc(S(=O)(=O)N(Cc2ccccc2)[C@H](CC(C)C)C(=O)NO)cc1`, 13 nM; for `COc1ccc(S(=O)(=O)N(Cc2cccnc2)[C@@H](C(=O)NO)C(C)C)cc1` [CGS-27023A], 7.7 nM.
With `CC[C@H](C)C[C@H](C(=O)NO)N(Cc1ccccc1)S(=O)(=O)c1ccc(OC)cc1`, it took 16 nM to reach half-maximal inhibition (IC50).

The target of another assay is Macrophage metalloelastase (Mus musculus) (UniProt P34960). The experiment in a line: Inhibitory activity against mouse macrophage metalloelastase (MME) at 100 nM concentration using [3H]elastin as a substrate.
Sequence of Macrophage metalloelastase (Mus musculus) (P34960 110-473 limits assumed): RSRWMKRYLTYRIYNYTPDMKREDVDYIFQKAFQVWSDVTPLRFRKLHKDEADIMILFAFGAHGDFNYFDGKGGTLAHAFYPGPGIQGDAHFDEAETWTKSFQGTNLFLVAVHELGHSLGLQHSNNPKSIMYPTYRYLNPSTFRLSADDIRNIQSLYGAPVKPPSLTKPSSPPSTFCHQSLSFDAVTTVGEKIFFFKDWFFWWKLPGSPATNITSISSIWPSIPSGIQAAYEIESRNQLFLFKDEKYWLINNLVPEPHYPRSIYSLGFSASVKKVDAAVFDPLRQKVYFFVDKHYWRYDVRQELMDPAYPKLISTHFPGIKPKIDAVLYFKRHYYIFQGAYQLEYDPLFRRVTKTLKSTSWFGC
Turning to `CC(C)CN(CC(=O)NO)S(=O)(=O)c1ccc(F)cc1`, the inhibition was 22%.
With `COc1ccc(S(=O)(=O)N(CCCCc2ccccc2)CC(=O)NO)cc1`, the inhibition stood at 83%.
Compound `COc1ccc(S(=O)(=O)N(CC(=O)NO)Cc2ccncc2)cc1` displayed an inhibition of 92%.
Still for that read-out and setting: for `COc1ccc(S(=O)(=O)N(CC(=O)NO)Cc2ccc(Cl)cc2)cc1` the value was 76%.
Same read-out and setting: for `COc1ccc(S(=O)(=O)N(CC(=O)NO)Cc2ccccc2)cc1` the value was 74%; for `CC(C)CN(CC(=O)NO)S(=O)(=O)c1ccccc1`, 27%.
As to `COc1ccc(S(=O)(=O)N(CCC2CCCCC2)CC(=O)NO)cc1`, the inhibition came to 79%.
For `COc1ccc(CN(CC(=O)NO)S(=O)(=O)c2ccc(OC)cc2)cc1`, the inhibition came out at 89%.
In the case of `COc1ccc(S(=O)(=O)N(CC(=O)NO)C2CCCCC2)cc1`, the inhibition stood at 13%.
Compound `CC(C)CN(CC(=O)NO)S(=O)(=O)c1ccc(Cl)cc1` yielded an inhibition of 68%.
`COc1ccc(S(=O)(=O)N(CC(=O)NO)CC2CCCCC2)cc1` returned an inhibition of 77%.
Consider `COc1ccc(S(=O)(=O)N(CC(=O)NO)Cc2ccc3ccccc3n2)cc1`, for which the inhibition is 50%.
Turning to `CCOCCOc1ccc(S(=O)(=O)N(CC(=O)NO)CC(C)C)cc1`, the inhibition was 69%.
The same measure, in the same setting: for `COc1ccc(S(=O)(=O)N(CC(=O)NO)Cc2cccnc2)cc1` the value was 80%.
The same measure, in the same setting: for `COc1ccc(S(=O)(=O)N(CCC(C)C)CC(=O)NO)cc1` the value was 11%.
Still for that read-out and setting: for `Cc1ccc(S(=O)(=O)N(CC(=O)NO)CC(C)C)cc1` the value was 56%; for `COc1ccc(S(=O)(=O)N(CC(=O)NO)Cc2ccccn2)cc1`, 88%; for `COc1ccc(S(=O)(=O)N(CC(=O)NO)Cc2cccc(OC)c2)cc1`, 75%.
`COc1ccc(S(=O)(=O)N(CC(=O)NO)C(C)C)cc1`: the inhibition turned out to be 0%.
Turning to `COc1ccc(S(=O)(=O)N(CC(=O)NO)Cc2ccc(C)cc2)cc1`, the inhibition was found to be 82%.
In turn, `CCC(C)N(CC(=O)NO)S(=O)(=O)c1ccc(OC)cc1` (stereo not given) came in with an inhibition of 35%.
Still for that read-out and setting: for `CC(C)CN(CC(=O)NO)S(=O)(=O)c1ccc(N(C)C)cc1` the value was 34%; for `COc1ccc(S(=O)(=O)N(CCc2ccccc2)CC(=O)NO)cc1`, 88%.
In the case of `CC(C)CN(CC(=O)NO)S(=O)(=O)c1ccc(N)cc1`, the inhibition was determined as 22%.
Regarding `COc1ccc(S(=O)(=O)NCC(=O)NO)cc1`, the inhibition was 0%.
Compound `COc1ccc(S(=O)(=O)N(CC(=O)NO)CC(C)C)cc1` registered an inhibition of 70%.
Same read-out and setting: for `COc1ccc(S(=O)(=O)N(CC(=O)NO)Cc2ccc(-c3ccccc3)cc2)cc1` the value was 86%.

For a further assay the target is unchanged. The experiment in a line: Inhibitory activity against mouse macrophage metalloelastase (MME) using [3H]elastin as a substrate; NI means no inhibition at 100 nM concentration.
Turning to `COc1ccc(S(=O)(=O)N(Cc2cccnc2)[C@@H](C(=O)NOCc2ccccc2)C(C)C)cc1`, the inhibition entry is “No inhibition”.
On to `COc1ccc(S(=O)(=O)N(Cc2cccnc2)[C@@H](C(=O)O)C(C)C)cc1`, for which the inhibition entry is “No inhibition”.
